Assays:
[1] = test system: RAW264.7; assay: Inhibition of LPS-induced nitric oxide production in mouse RAW264.7 cells after 24 hrs by Griess reaction; type: functional, cell-based; conditions: RAW264.7, 24 h
[2] = test system: RAW264.7; assay: Cytotoxicity against mouse RAW264.7 cells assessed as cell viability at IC50 by colorimetric assay; type: cell-based

IC50 [1] [µM]	SMILES	Activity [2]
34.2	CC1=CC[C@@H](OC(=O)c2ccccc2)C2[C@@]1(C)[C@@H](OC(=O)c1cccnc1)[C@H](O)[C@]1(C)O[C@@]3(CC[C@]21C)COC(=O)C3 (stereo not given in full)	Non-toxic
> 50	CC1=CC[C@@H](OC(=O)c2ccccc2)C2[C@@]1(C)[C@@H](OC(=O)c1cccnc1)[C@H](OC(=O)c1ccccc1)[C@]1(C)O[C@]3(CC[C@]21C)COC(=O)C3 (stereo not given in full)	Non-toxic
> 50	CC(=O)O[C@H]1[C@H](OC(C)=O)[C@]2(C)O[C@]3(CC[C@]2(C)C2[C@H](OC(=O)c4ccccc4)CC=C(C)[C@@]21C)COC(=O)C3 (stereo not given in full)	Non-toxic
20.6	C=C1CCCC2[C@@]1(C)[C@@H](OC(=O)c1ccccc1)[C@H](O)[C@]1(C)O[C@]3(COC(=O)C3)C[C@H](OC(=O)c3ccccc3)[C@]21C (stereo not given in full)	Non-toxic
> 50	CC1=CCCC2[C@@]1(C)[C@@H](OC(=O)c1cccnc1)[C@H](O)[C@]1(C)O[C@]3(COC(=O)C3)C[C@H](OC(=O)c3cccnc3)[C@]21C (stereo not given in full)	Non-toxic
22.8	CC1=CCCC2[C@@]1(C)[C@@H](OC(=O)c1cccnc1)[C@H](OC(=O)c1ccccc1)[C@](C)(O)[C@]2(C)/C=C/C1=CC(=O)OC1 (stereo not given in full)	Non-toxic
26.3	CC1=CCCC2[C@@]1(C)[C@@H](OC(=O)c1cccnc1)[C@H](OC(=O)c1cccnc1)[C@](C)(O)[C@]2(C)/C=C/C1=CC(=O)OC1 (stereo not given in full)	Non-toxic
27.7	CC1=CCCC2[C@@]1(C)[C@@H](OC(=O)c1ccccc1)[C@H](OC(=O)c1cccnc1)[C@](C)(O)[C@]2(C)/C=C/C1=CC(=O)OC1 (stereo not given in full)	Non-toxic
> 50	CC(=O)O[C@@H](CC1=C(O)C(=O)OC1)[C@]1(C)C2CCC=C(C)[C@]2(C)[C@@H](OC(=O)c2cccnc2)[C@H](O)[C@]1(C)O (stereo not given in full)	Non-toxic
> 50	CC(=O)O[C@@H](CC1=C(O)C(=O)OC1)[C@]1(C)C2CCC=C(C)[C@]2(C)[C@@H](OC(=O)c2cccnc2)[C@H](OC(=O)c2cccnc2)[C@]1(C)O (stereo not given in full)	Non-toxic
> 50	CC(=O)O[C@@H](CC1=C(O)C(=O)OC1)[C@]1(C)C2CCC=C(C)[C@]2(C)[C@@H](OC(=O)c2cccnc2)[C@H](OC(=O)c2ccccc2)[C@]1(C)O (stereo not given in full)	Non-toxic
21.5	CC1=CC[C@@H](OC(=O)c2cccnc2)C2[C@@]1(C)[C@@H](OC(=O)c1cccnc1)[C@H](OC(=O)c1ccccc1)[C@]1(C)O[C@]3(CC[C@]21C)COC(=O)C3 (stereo not given in full)	Non-toxic
20.2	CC1=CC[C@@H](OC(=O)c2ccccc2)C2[C@@]1(C)[C@@H](OC(=O)c1cccnc1)[C@H](OC(=O)c1cccnc1)[C@]1(C)O[C@]3(CC[C@]21C)COC(=O)C3 (stereo not given in full)	Non-toxic
35.6	CC1=CC[C@@H](OC(=O)c2cccnc2)C2[C@@]1(C)[C@@H](OC(=O)c1cccnc1)C[C@]1(C)O[C@@]3(CC[C@]21C)COC(=O)C3 (stereo not given in full)	Non-toxic
> 50	C[C@@]12[C@@H](OC(=O)c3cccnc3)[C@H](OC(=O)c3ccccc3)[C@](C)(O)[C@](C)(/C=C/C3=CC(=O)OC3)[C@H]1CC=C[C@]2(C)O [SCUTEBARBATINE F]	Non-toxic

Reference: ChEMBL document CHEMBL3608204, “neo-Clerodane Diterpenoids from Scutellaria barbata and Their Inhibitory Effects on LPS-Induced Nitric Oxide Production” (J Nat Prod, 2015)
